Laboratory results reported in patent US20230145305A1, “COMPOUNDS USEFUL AS KINASE INHIBITORS” (Fochon Biosciences, Ltd., priority 2020, published 2023).

Biological target: T1, BTK (C481S) (Homo sapiens, UniProt Q06187, C481S)
T1 construct: purchased SignalChem B10-12CH
Assay: Kinase assay of BTK (C481S), [33P]-ATP filter-binding, Reaction Biology Corporation
Format: biochemical
Conditions: 6 nM BTK (C481S), 0.2 mg/ml pEY substrate, 10 μM ATP, 20 min preincubation, 120 min reaction at room temperature
Experimental: The kinase activity of BTK (C481S) was assayed at Reaction Biology Corporation. The substrate in the BTK (C481S) reaction, pEY (poly[Glu:Tyr] (4:1)) (Sigma, Cat. #P7244-250MG), was prepared in fresh reaction buffer (20 mM Hepes (pH 7.5), 10 mM MgCl2, 1 mM EGTA, 0.02% Brij35, 0.02 mg/mi BSA, 0.1 mM Na3VO4, 2 mM DTT, 1% DMSO). BTK(C481S) (SignalChem, Cat. #B10-12CH) was delivered into the substrate solution and mixed gently. The final concentrations of BTK (C481S) and the substrate in the reaction mixture were 6 nM and 0.2 mg/ml, respectively. Compounds were tested in 10-point concentration/response mode with 3-fold serial dilution steps starting at 1 μM.
Compounds in 100% DMSO were delivered into the kinase reaction mixture by acoustic liquid delivery technology (Echo550; nanoliter range) and incubated for 20 min at room temperature. 10 μM [^33P]-ATP (ATP: Sigma, Cat #: A7699; [^33P]-ATP: Hartmann Analytic, Cat #: SCF-301-12) was delivered into the reaction mixture to initiate the reaction. The mixture was incubated for 120 min at room temperature. Radioactivity was detected utilizing a proprietary filter-binding method. Kinase activity data were expressed as the percent remaining kinase activity in test samples compared to vehicle (DMSO) reactions. IC50 values were obtained using GraphPad Prism software.
Select compounds prepared as described above were assayed according to the biological procedures described herein.

T1 sequence (Q06187 whole entry C481S): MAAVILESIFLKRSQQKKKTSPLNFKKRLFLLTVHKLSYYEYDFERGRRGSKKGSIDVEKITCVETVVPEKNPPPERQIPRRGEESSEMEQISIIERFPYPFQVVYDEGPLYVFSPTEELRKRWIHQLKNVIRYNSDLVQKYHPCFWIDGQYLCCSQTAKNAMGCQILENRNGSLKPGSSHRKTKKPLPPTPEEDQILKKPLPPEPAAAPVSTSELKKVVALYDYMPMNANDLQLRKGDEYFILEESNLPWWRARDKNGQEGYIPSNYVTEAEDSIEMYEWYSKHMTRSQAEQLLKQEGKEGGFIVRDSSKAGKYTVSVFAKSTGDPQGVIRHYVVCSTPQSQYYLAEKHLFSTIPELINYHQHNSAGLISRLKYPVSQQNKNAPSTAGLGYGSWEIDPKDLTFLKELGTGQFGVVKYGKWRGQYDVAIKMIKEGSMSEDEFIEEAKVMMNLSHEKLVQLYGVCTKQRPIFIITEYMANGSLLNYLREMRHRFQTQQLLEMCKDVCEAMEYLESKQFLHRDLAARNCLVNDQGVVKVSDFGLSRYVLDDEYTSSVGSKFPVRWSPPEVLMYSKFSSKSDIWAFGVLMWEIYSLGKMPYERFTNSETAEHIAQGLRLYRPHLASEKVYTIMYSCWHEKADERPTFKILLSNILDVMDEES

| IC50 [nM] | SMILES |
| --- | --- |
| 5 | COc1ccccc1C(=O)NCc1ccc(-n2cc(C3CCCC3)c3c(=O)[nH]nc(N)c32)cc1 [Example 1, N-(4-(7-amino-3-cyclopentyl-4-oxo-4,5-dihydro-1H-pyrrolo[2,3-d]pyridazin-1-yl)benzyl)-2-methoxybenzamide] |
| 3.3 | COc1ccccc1C(=O)NCc1ccc(-n2nc(C3CCCC3)c3c(=O)[nH]nc(N)c32)cc1 [Example 2, N-(4-(7-amino-3-cyclopentyl-4-oxo-4,5-dihydro-1H-pyrazolo[3,4-d]pyridazin-1-yl)benzyl)-2-methoxybenzamide] |
| 0.5 | COc1ccc(F)cc1C(=O)NCc1ccc(-c2cn(C3CCCC3)c3c(=O)[nH]nc(N)c23)cc1 [Example 17, N-(4-(4-amino-1-cyclopentyl-7-oxo-6,7-dihydro-1H-pyrrolo[2,3-d]pyridazin-3-yl)benzyl)-5-fluoro-2-methoxybenzamide] |
| 8 | COc1ccccc1C(=O)NCc1ccc(-c2nn(C3CCCC3)c3c(=O)[nH]nc(N)c23)cc1 [Example 5, N-(4-(4-amino-1-cyclopentyl-7-oxo-6,7-dihydro-1H-pyrazolo[3,4-d]pyridazin-3-yl)benzyl)-2-methoxybenzamide] |
| 7.8 | COc1ccccc1C(=O)NCc1ccc(-c2nc(C3CCCC3)n3ncnc(N)c23)cc1 [Example 6, N-(4-(4-amino-7-cyclopentylimidazo[5,1-f][1,2,4]triazin-5-yl)benzyl)-2-methoxybenzamide] |
| 3 | COc1ccccc1C(=O)NCc1ccc(-c2nc(C3CCCC3)n3ccnc(N)c23)cc1 [Example 7, N-(4-(8-amino-3-cyclopentylimidazo[1,5-a]pyrazin-1-yl)benzyl)-2-methoxybenzamide] |

Tested on: OCI-LY10 cells
Assay: Cell proliferation assay (MTS) in OCI-LY10 cells
Format: cell-based
Conditions: Homo sapiens, OCI-Ly10, 72 h, read-out: OCI-LY10 IC50 (nM)
Source text: MTS testing kit was purchased from Promega (Madison, Wis., USA). The RPMI-1640, Fetal bovine serum and Penicillin-Streptomycin were purchased from BI (Biological Industries, Beit Haemek, Israel). Dimethyl sulfoxide (DMSO) was purchased from Sigma (St. Louis., Mo., USA). […] To investigate whether a compound is able to inhibit the activity of BTK in cells, a mechanism-based assay using OCI-LY10 cells was developed. In this assay, inhibition of BTK was detected by the inhibition of OCI-LY10 cells proliferation. Cells were plated into 96-well plates at a density of 10000 cells/well. Plates were incubated at 37° C., with 5% CO2 for 4 h. […] Plates were incubated at 37° C., with 5% CO2 for 72 h. 20 μl MTS was added into each well and the plates were incubated at 37° C., with 5% CO2 for exactly 2 h. The absorbance was measured by a microplate reader at 490 nm. IC50 was calculated using GraphPad Prism 5.0 software. Select compounds prepared as described above were assayed according to the biological procedures described herein.

| SMILES | IC50 [nM] |
| --- | --- |
| COc1ccc(F)cc1C(=O)NCc1ccc(-c2nc(C3CCCC3)n3ncnc(N)c23)cc1 [Example 12, N-(4-(4-amino-7-cyclopentylimidazo [5,1-f][1,2,4]triazin-5-yl)benzyl)-5-fluoro-2-methoxybenzamide] | 9 |

Same assay, conditions: Homo sapiens; inhibition of OCI-LY10 cells proliferation, 72 h incubation, MTS, absorbance at 490 nm; read-out: OCI-LY10 IC50

| SMILES | IC50 [nM] |
| --- | --- |
| COc1ccccc1C(=O)NCc1ccc(-n2cc(C3CCCC3)c3c(=O)[nH]nc(N)c32)cc1 [Example 1, N-(4-(7-amino-3-cyclopentyl-4-oxo-4,5-dihydro-1H-pyrrolo[2,3-d]pyridazin-1-yl)benzyl)-2-methoxybenzamide] | 28 |
| COc1ccccc1C(=O)NCc1ccc(-n2nc(C3CCCC3)c3c(=O)[nH]nc(N)c32)cc1 [Example 2, N-(4-(7-amino-3-cyclopentyl-4-oxo-4,5-dihydro-1H-pyrazolo[3,4-d]pyridazin-1-yl)benzyl)-2-methoxybenzamide] | 34 |
| COc1ccc(F)cc1C(=O)NCc1ccc(-c2cn(C3CCCC3)c3c(=O)[nH]nc(N)c23)cc1 [Example 17, N-(4-(4-amino-1-cyclopentyl-7-oxo-6,7-dihydro-1H-pyrrolo[2,3-d]pyridazin-3-yl)benzyl)-5-fluoro-2-methoxybenzamide] | 1 |
| COc1ccccc1C(=O)NCc1ccc(-c2nn(C3CCCC3)c3c(=O)[nH]nc(N)c23)cc1 [Example 5, N-(4-(4-amino-1-cyclopentyl-7-oxo-6,7-dihydro-1H-pyrazolo[3,4-d]pyridazin-3-yl)benzyl)-2-methoxybenzamide] | 68 |
| COc1ccc(F)cc1C(=O)NCc1ccc(-c2cn(C3CCC3)c3c(=O)[nH]nc(N)c23)cc1 [Example 36, N-(4-(4-amino-1-cyclobutyl-7-oxo-6,7-dihydro-1H-pyrrolo[2,3-d]pyridazin-3-yl)benzyl)-5-fluoro-2-methoxybenzamide] | 1 |
| COc1ccc(F)cc1C(=O)NCc1ccc(-c2cn(C3CCOCC3)c3c(=O)[nH]nc(N)c23)cc1 [Example 37, N-(4-(4-amino-7-oxo-1-(tetrahydro-2H-pyran-4-yl)-6,7-dihydro-1H-pyrrolo [2,3-d]pyridazin-3-yl)benzyl)-5-fluoro-2-methoxybenzamide] | 9 |
| COc1ccc(F)cc1C(=O)NCc1ccc(-c2cn([C@@H]3CCN(C(=O)C4CC4)C3)c3c(=O)[nH]nc(N)c23)cc1 [Example 48, (R)-N-(4-(4-amino-1-(1-(cyclopropanecarbonyl)pyrrolidin-3-yl)-7-oxo-6,7-dihydro-1H-pyrrolo[2,3-d]pyridazin-3-yl)benzyl)-5-fluoro-2-methoxybenzamide] | 48 |
| COc1ccc(F)cc1C(=O)NCc1ccc(-c2nn([C@@H](C)C(F)(F)F)c3c(=O)[nH]nc(N)c23)cc1 [Example 40a, (S)-N-(4-(4-amino-7-oxo-1-(1,1,1-trifluoropropan-2-yl)-6,7-dihydro-1H-pyrazolo[3,4-d]pyridazin-3-yl)benzyl)-5-fluoro-2-methoxybenzamide] | 7 |
| COc1ccc(F)cc1C(=O)NCc1ccc(-c2cn(C3CCCC3)c3c(=O)[nH]nc(N)c23)cc1F [Example 30, N-(4-(4-amino-1-cyclopentyl-7-oxo-6,7-dihydro-1H-pyrrolo[2,3-d]pyridazin-3-yl)-2-fluorobenzyl)-5-fluoro-2-methoxybenzamide] | 1 |
| COc1ccc(F)cc1C(=O)NCc1ccc(-c2cn(C3CC(F)(F)C3)c3c(=O)[nH]nc(N)c23)cn1 [Example 55] | 28 |

Next, values leading:

| IC50 [nM] | SMILES |
| --- | --- |
| 1 | COc1ccc(F)cc1C(=O)NCc1ccc(-n2nc(C(C)C3CC3)c3c(=O)[nH]nc(N)c32)cc1 (centres unmarked) [Example 96, N-(4-(7-amino-3-(1-cyclopropylethyl)-4-oxo-4,5-dihydro-1H-pyrazolo[3,4-d]pyridazin-1-yl)benzyl)-5-fluoro-2-methoxybenzamide] |
| 22 | CC[C@@H](C)c1nn(-c2ccc(CNC(=O)c3cc(F)ccc3OC)cc2)c2c(N)n[nH]c(=O)c12 [Example 92b, (R)-N-(4-(7-amino-3-(sec-butyl)-4-oxo-4,5-dihydro-1H-pyrazolo[3,4-d]pyridazin-1-yl)benzyl)-5-fluoro-2-methoxybenzamide] |
| 15 | COc1ccc(F)cc1C(=O)NCc1ccc(-n2nc(C3CCCC3(F)F)c3c(=O)[nH]nc(N)c32)cc1 (centres unmarked) [Example 90, N-(4-(7-amino-3-(2,2-difluorocyclopentyl)-4-oxo-4,5-dihydro-1H-pyrazolo [3,4-d]pyridazin-1-yl)benzyl)-5-fluoro-2-methoxybenzamide] |
| 23 | COc1ccc(F)cc1C(=O)NCc1ccc(-n2nc(C3CC(F)(F)C3)c3c(=O)[nH]nc(N)c32)cc1 [Example 97, N-(4-(7-amino-3-(3,3-difluorocyclobutyl)-4-oxo-4,5-dihydro-1H-pyrazolo[3,4-d]pyridazin-1-yl)benzyl)-5-fluoro-2-methoxybenzamide] |
| 23 | COc1ncc(F)cc1C(=O)NCc1ccc(-c2cn(C3CCCC3)c3c(=O)[nH]nc(N)c23)cc1 [Example 71, N-(4-(4-amino-1-cyclopentyl-7-oxo-6,7-dihydro-1H-pyrrolo[2,3-d]pyridazin-3-yl)benzyl)-5-fluoro-2-methoxynicotinamide] |
| 1 | COc1ccc(F)cc1C(=O)NCc1ccc(-c2nn(C3CCCC3)c3c(=O)[nH]nc(N)c23)c(F)c1 [Example 63, N-(4-(4-amino-1-cyclopentyl-7-oxo-6,7-dihydro-1H-pyrazolo[3,4-d]pyridazin-3-yl)-3-fluorobenzyl)-5-fluoro-2-methoxybenzamide] |
| 4 | COc1ccc(F)cc1C(=O)NCc1ccc(-c2nn(C3(C(F)(F)F)CC3)c3c(=O)[nH]nc(N)c23)cc1 [Example 87, N-(4-(4-amino-7-oxo-1-(1-(trifluoromethyl)cyclopropyl)-6,7-dihydro-1H-pyrazolo [3,4-d]pyridazin-3-yl)benzyl)-5-fluoro-2-methoxybenzamide] |
| 23 | CCS(=O)(=O)N1CC[C@@H](n2cc(-c3ccc(CNC(=O)c4cc(F)ccc4OC)cc3)c3c(N)n[nH]c(=O)c32)C1 [Example 110, (R)-N-(4-(4-amino-1-(1-(ethylsulfonyl)pyrrolidin-3-yl)-7-oxo-6,7-dihydro-1H-pyrrolo[2,3-d]pyridazin-3-yl)benzyl)-5-fluoro-2-methoxybenzamide] |
| 1 | COc1ccc(F)cc1C(=O)NCc1ccc(-c2nn([C@@H](C(F)F)C3CC3)c3c(=O)[nH]nc(N)c23)cc1 [Example 89, (R)-N-(4-(4-amino-1-(1-cyclopropyl-2,2-difluoroethyl)-7-oxo-6,7-dihydro-1H-pyrazolo[3,4-d]pyridazin-3-yl)benzyl)-5-fluoro-2-methoxybenzamide] |
| 10 | CCC(C)c1nn(-c2ccc(CNC(=O)c3cc(F)ccc3OC)cc2)c2c(N)n[nH]c(=O)c12 (centres unmarked) [Example 92a, N-(4-(7-amino-3-(sec-butyl)-4-oxo-4,5-dihydro-1H-pyrazolo[3,4-d]pyridazin-1-yl)benzyl)-5-fluoro-2-methoxybenzamide] |
| 1 | COc1ccc(F)cc1C(=O)NCc1ccc(-c2nn([C@@H](C)C3CC3)c3c(=O)[nH]nc(N)c23)cc1 [Example 77b, (S)-N-(4-(4-amino-1-(1-cyclopropylethyl)-7-oxo-6,7-dihydro-1H-pyrazolo[3,4-d]pyridazin-3-yl)benzyl)-5-fluoro-2-methoxybenzamide] |
| 4 | COc1ccc(F)cc1C(=O)NCc1ccc(-c2nn(C3(C(F)F)CC3)c3c(=O)[nH]nc(N)c23)cc1 [Example 84, N-(4-(4-amino-1-(1-(difluoromethyl)cyclopropyl)-7-oxo-6,7-dihydro-1H-pyrazolo[3,4-d]pyridazin-3-yl)benzyl)-5-fluoro-2-methoxybenzamide] |
